Experimental data taken from US20250136932A1, “COMPOSITIONS AND METHODS FOR CULTURING AND MAINTAINING TROPHOBLAST STEM CELLS” (NORTH CAROLINA STATE UNIVERSITY, priority 2022, published 2025).

What was measured:
CTB21126R+ term hTSCs = test: Immunofluorescence marker expression in term CTB-derived hTSCs; format: cell-based, human; conditions: term hTSCs switched from TSCM+UK5099+AlbuMAX to TSCM
Experimental: Immunofluorescence analysis. For immunofluorescence analysis, cells were grown on glass-bottom culture dishes coated with 3 μg/ml vitronectin and 1 μg/ml of Laminin 521. Cells were fixed either using 4% paraformaldehyde in PBS for 10 min, permeabilized with 0.5% Triton X-100 for 5 min and blocked in 3% BSA/PBS with 0.1% human IgG and 0.3% Triton X-100 for 1 hr. Cells were then incubated overnight with the primary antibody diluted in blocking buffer. The following primary antibodies were used: anti-KRT7 (SCB, 1:50), anti-KRT7 (CST, 1:500), rabbit anti-hCG (1:100), mouse anti-hCG (1:100), anti-YAP (1:200), anti-TFAP2C (1:400), anti-P63 (1:600), anti-GATA3 (1:500), anti-TEAD4 (1:250), anti-CDX2 (1:300), anti-VE-Cadherin (1:400), anti-HLA-G (1:300), anti-syncytin (1:50). Corresponding isotype controls (rabbit polyclonal IgG, rabbit XP IgG, mouse IgG1, and mouse IgG2a) were used at primary antibody concentrations. Alexa Fluor 488- or Alexa Fluor 647-conjugated secondary antibodies were used as secondary antibodies. Nuclei were stained with DAPI and all samples were imaged using a Zeiss LSM 710 or 880 laser scanning confocal microscope (Carl Zeiss, Germany).
Immunostaining. For immunofluorescence analysis, 3×10^4 cells were grown on 24-well glass bottom plates coated with 3 μg/ml of vitronectin and 1 μg/ml of Laminin 521. […]

[1] = system: CDX2+ hTSCs from CTBs from term placentas; test: Derivation and support of CDX2+ hTSCs from term placental CTBs; format: cell-based, human; conditions: component added to or exchanged in TSCM
Experimental: Differentiation of term CTBs to hTSCs. Term CTBs that were previously frozen were thawed directly into DTM7 medium, or TSCMUA medium (see, e.g., Table 1). To assess DTME medium, cells cultured in TSCMUA were passaged into DTME.
Culture of hTSCs. hTSCs were cultured in 2 ml of DTM7 at 37 C in 5% CO2. Culture medium was replaced every 2 days. When hTSCs reached 70-90% confluence, they were dissociated with TrypLE at 37° C. for 5-10 minutes and passaged to a new 6-well plate pre-coated with 3 μg/ml of vitronectin and 1 μg/ml of Laminin 521 at a 1:3-1:4 split ratio and were supplemented with Y-27632 upon passage to aid in single cell attachment. Cells were routinely passaged approximately every 4-6 days. hTSCs at passages 2+ (typically passage 5+) were used for analysis.
hTSC cell culture. hTSCs were cultured as previously described by Okae et al. with minor modifications. Additionally, similar protocols were used for the TSCMUA, DMT7, and DTME media described further herein. […]

Compound | Role of component in CDX2 expression (CTB21126R+ term hTSCs) | Role of component in hTSC derivation from term CTB [1]
N#CC(=Cc1cn(-c2ccccc2)c2ccccc12)C(=O)O [UK5099, α-cyano-β-(1-phenylindol-3-yl)-acrylate] | important for CDX2 expression | necessary
lysophosphatidic acid [LPA] | – | cannot replace AlbuMAX
